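In this assay, cells in 96-well plates receive the compound at five concentrations for 48 hours. Endpoints are linearly interpolated between the surrounding concentrations. TGI: concentration producing complete growth inhibition.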
Assays:
Assay in all cases: growth of human tumour cells (NCI), 48 h
[1] = tested on: 786-0 renal
[2] = tested on: A498 renal
[3] = tested on: A549 NSCLC
[4] = tested on: ACHN renal
[5] = tested on: BT-549 breast
[6] = tested on: CAKI-1 renal
[7] = tested on: CCRF-CEM leukemia
[8] = tested on: COLO 205 colon
[9] = tested on: EKVX NSCLC
[10] = tested on: HCT-116 colon
[11] = tested on: HCT-15 colon
[12] = tested on: HL-60(TB) leukemia
[13] = tested on: HOP-62 NSCLC
[14] = tested on: HOP-92 NSCLC
[15] = tested on: HS 578T breast
[16] = tested on: HT29 colon
[17] = tested on: IGROV1 ovarian
[18] = tested on: K-562 leukemia
[19] = tested on: KM12 colon
[20] = tested on: M14 melanoma
[21] = tested on: MALME-3M melanoma
[22] = tested on: MDA-MB-231 breast
[23] = tested on: MDA-MB-435
[24] = tested on: MDA-N
[25] = tested on: MOLT-4 leukemia
[26] = tested on: NCI-H226 lung
[27] = tested on: NCI-H23 lung
[28] = tested on: NCI-H460 lung
[29] = tested on: NCI-H522 lung
[30] = tested on: NCI/ADR-RES ovarian
[31] = tested on: OVCAR-3 ovarian
[32] = tested on: OVCAR-4 ovarian
[33] = tested on: OVCAR-5 ovarian
[34] = tested on: OVCAR-8 ovarian
[35] = tested on: RPMI-8226 leukemia
[36] = tested on: RXF 393 renal
[37] = tested on: SF-268 CNS
[38] = tested on: SF-295 CNS
[39] = tested on: SF-539 CNS
[40] = tested on: SK-MEL-28 melanoma
[41] = tested on: SK-MEL-5 melanoma
[42] = tested on: SK-OV-3 ovarian
[43] = tested on: SN12C renal
[44] = tested on: SNB-19 CNS
[45] = tested on: SR leukemia
[46] = tested on: SW-620 colon
[47] = tested on: T-47D breast
[48] = tested on: TK-10 renal
[49] = tested on: U251 CNS
[50] = tested on: UACC-257 melanoma
[51] = tested on: UACC-62 melanoma
[52] = tested on: UO-31 renal
[53] = tested on: DU-145 prostate
[54] = tested on: HCC-2998 colon
[55] = tested on: LOX IMVI melanoma
[56] = tested on: MCF7 breast
[57] = tested on: SK-MEL-2 melanoma
[58] = tested on: SNB-75 CNS
[59] = tested on: PC-3 prostate

CC(=O)O[C@H]1C(=O)[C@@]2(C)[C@H]([C@H](OC(=O)c3cccc(C(F)(F)F)c3)[C@]3(O)C[C@H](OC(=O)[C@H](O)[C@@H](NC(=O)c4ccccc4)c4ccccc4)C(C)=C1C3(C)C)[C@]1(OC(C)=O)CO[C@@H]1C[C@@H]2O
TGI [1]: 4.49 µM
TGI [2]: > 13.6 µM
TGI [3]: > 25 µM
TGI [4]: > 9.46 µM
TGI [5]: > 15.5 µM
TGI [6]: > 25 µM
TGI [7]: 0.368 µM
TGI [8]: 3.27 µM
TGI [9]: > 25 µM
TGI [10]: 3.21 µM
TGI [11]: > 25 µM
TGI [12]: < 0.0025 µM
TGI [13]: > 14.2 µM
TGI [14]: 15.1 µM
TGI [15]: 0.0653 µM
TGI [16]: 3.84 µM
TGI [17]: > 23 µM
TGI [18]: 4.85 µM
TGI [19]: 24.8 µM
TGI [20]: 11.9 µM
TGI [21]: 10.5 µM
TGI [22]: > 13.1 µM
TGI [23]: < 0.0025 µM
TGI [24]: < 0.0025 µM
TGI [25]: 3.57 µM
TGI [26]: 11.6 µM
TGI [27]: > 25 µM
TGI [28]: > 10.6 µM
TGI [29]: 0.0175 µM
TGI [30]: > 7.02 µM
TGI [31]: 8.03 µM
TGI [32]: > 18.4 µM
TGI [33]: > 10.7 µM
TGI [34]: 7.61 µM
TGI [35]: 0.0862 µM
TGI [36]: 0.809 µM
TGI [37]: > 25 µM
TGI [38]: 13.3 µM
TGI [39]: 0.0105 µM
TGI [40]: > 25 µM
TGI [41]: 4.33 µM
TGI [42]: > 25 µM
TGI [43]: > 25 µM
TGI [44]: > 25 µM
TGI [45]: 3.72 µM
TGI [46]: > 16.4 µM
TGI [47]: > 25 µM
TGI [48]: 8.88 µM
TGI [49]: 0.0196 µM
TGI [50]: 8.27 µM
TGI [51]: 8 µM
TGI [52]: > 15.9 µM

Cc1ccc(NN=NCCCCN)cc1
TGI [1]: > 100 µM
TGI [2]: > 100 µM
TGI [3]: > 100 µM
TGI [4]: > 100 µM
TGI [5]: > 100 µM
TGI [6]: > 100 µM
TGI [7]: > 100 µM
TGI [8]: > 100 µM
TGI [53]: > 100 µM
TGI [9]: > 100 µM
TGI [54]: > 100 µM
TGI [10]: > 100 µM
TGI [11]: > 100 µM
TGI [12]: > 100 µM
TGI [13]: > 100 µM
TGI [14]: > 100 µM
TGI [15]: > 100 µM
TGI [16]: > 100 µM
TGI [17]: > 100 µM
TGI [19]: > 100 µM
TGI [55]: > 100 µM
TGI [20]: > 100 µM
TGI [21]: > 100 µM
TGI [56]: > 100 µM
TGI [22]: > 100 µM
TGI [23]: > 100 µM
TGI [24]: > 100 µM
TGI [25]: > 100 µM
TGI [26]: > 100 µM
TGI [27]: > 100 µM
TGI [29]: > 100 µM
TGI [30]: > 100 µM
TGI [32]: > 100 µM
TGI [33]: > 100 µM
TGI [34]: > 100 µM
TGI [35]: > 100 µM
TGI [36]: > 100 µM
TGI [37]: > 100 µM
TGI [38]: > 100 µM
TGI [39]: > 100 µM
TGI [57]: > 100 µM
TGI [41]: > 100 µM
TGI [42]: > 100 µM
TGI [43]: > 100 µM
TGI [44]: > 100 µM
TGI [58]: > 100 µM
TGI [45]: > 100 µM
TGI [46]: > 100 µM
TGI [47]: > 100 µM
TGI [48]: > 100 µM
TGI [50]: > 100 µM
TGI [51]: > 100 µM
TGI [52]: > 100 µM

COc1cc(C)c2c(=O)c3ccccc3n(C)c2c1
TGI [1]: > 100 µM
TGI [2]: 56.1 µM
TGI [3]: > 100 µM
TGI [4]: 55.7 µM
TGI [5]: 52.7 µM
TGI [6]: 76.5 µM
TGI [7]: 75.4 µM
TGI [8]: 91.1 µM
TGI [53]: > 100 µM
TGI [9]: 91.9 µM
TGI [54]: > 100 µM
TGI [10]: 34 µM
TGI [11]: > 100 µM
TGI [12]: 69.7 µM
TGI [14]: 25.8 µM
TGI [15]: 72.6 µM
TGI [16]: 29 µM
TGI [17]: 89.8 µM
TGI [18]: 39.1 µM
TGI [19]: > 100 µM
TGI [55]: 34.4 µM
TGI [20]: 60.8 µM
TGI [21]: 73.2 µM
TGI [56]: > 100 µM
TGI [22]: > 100 µM
TGI [23]: > 100 µM
TGI [24]: > 100 µM
TGI [25]: > 100 µM
TGI [26]: 69 µM
TGI [27]: 77 µM
TGI [28]: > 100 µM
TGI [29]: 5.74 µM
TGI [30]: > 100 µM
TGI [31]: 52.7 µM
TGI [32]: 45.6 µM
TGI [33]: > 100 µM
TGI [34]: 78.8 µM
TGI [59]: 78.2 µM
TGI [36]: 40.4 µM
TGI [37]: 95.9 µM
TGI [38]: 34.9 µM
TGI [39]: 34 µM
TGI [57]: 78.3 µM
TGI [40]: 89.3 µM
TGI [42]: > 100 µM
TGI [43]: 41.5 µM
TGI [44]: 98.6 µM
TGI [58]: 72.8 µM
TGI [45]: 43 µM
TGI [46]: > 100 µM
TGI [48]: > 100 µM
TGI [49]: 44.8 µM
TGI [50]: 77 µM
TGI [51]: 39.2 µM

CC(=O)N1OC(C)CC1Nc1ccc(Br)cc1 (stereo not drawn)
TGI [1]: > 100 µM
TGI [2]: > 100 µM
TGI [3]: > 100 µM
TGI [4]: > 100 µM
TGI [5]: > 100 µM
TGI [7]: > 100 µM
TGI [53]: > 100 µM
TGI [9]: > 100 µM
TGI [54]: 22.4 µM
TGI [10]: > 100 µM
TGI [11]: > 100 µM
TGI [12]: > 100 µM
TGI [13]: 6.13 µM
TGI [14]: > 100 µM
TGI [15]: > 100 µM
TGI [16]: > 100 µM
TGI [17]: > 100 µM
TGI [18]: > 100 µM
TGI [19]: > 100 µM
TGI [20]: > 100 µM
TGI [21]: > 100 µM
TGI [56]: > 100 µM
TGI [23]: > 100 µM
TGI [24]: > 100 µM
TGI [25]: > 100 µM
TGI [26]: > 100 µM
TGI [27]: > 100 µM
TGI [28]: > 100 µM
TGI [30]: > 100 µM
TGI [31]: > 100 µM
TGI [33]: > 100 µM
TGI [34]: > 100 µM
TGI [59]: > 100 µM
TGI [36]: > 100 µM
TGI [37]: > 100 µM
TGI [38]: > 100 µM
TGI [39]: > 100 µM
TGI [57]: > 100 µM
TGI [41]: > 100 µM
TGI [42]: > 100 µM
TGI [43]: > 100 µM
TGI [44]: > 100 µM
TGI [45]: > 100 µM
TGI [46]: > 100 µM
TGI [47]: > 100 µM
TGI [48]: > 100 µM
TGI [49]: > 100 µM
TGI [51]: > 100 µM
TGI [52]: > 100 µM

— PubChem BioAssay (NCI)
